The nature of data set [1]: Log P measurement by HPLC on reversed phase columns (EEC directive 79/831 Annex V.A8). It counts as physicochemical. The note with it: reversed phase HPLC column, LC-UV. On the procedure:
[table] Measurement of Log P values was performed according to EEC directive 79/831 Annex V.A8 by HPLC (High Performance Liquid Chromatography) on reversed phase columns with the following methods: If more than one Log P value is available within the same method, all the values are given and separated by “+”. […] Lambda-max-values were determined using UV-spectra from 200 nm to 400 nm and the peak values of the chromatographic signals.

The subject of another data set is Phakopsora pachyrhizi. In words: In vivo preventive test on Phakopsora (soybeans). On the set-up: species or system Phakopsora pachyrhizi (soybean rust) on soybeans. The note with it: 168 h, young soybean plants sprayed, 10 ppm of active ingredient, evaluated 7 days after inoculation, 0% = untreated control, 100% = no disease, read-out: efficacy. On the procedure:
Example: In Vivo Preventive Test on Phakopsora Test (Soybeans)
To produce a suitable preparation of active compound, 1 part by weight of active compound is mixed with the stated amounts of solvent and emulsifier, and the concentrate is diluted with water to the desired concentration.
To test for preventive activity, young plants are sprayed with the preparation of active compound at the stated rate of application. After the spray coating has dried on, the plants are inoculated with an aqueous spore suspension of the causal agent of soybean rust (Phakopsora pachyrhizi) and stay for 24 h without light in an incubation cabinet at approximately 24° C. and a relative atmospheric humidity of 95%.
The plants remain in the incubation cabinet at approximately 24° C. and a relative atmospheric humidity of approximately 80% and a day/night interval of 12 h.
The test is evaluated 7 days after the inoculation. 0% means an efficacy which corresponds to that of the untreated control, while an efficacy of 100% means that no disease is observed.

Setting [2] is: acidic range, 0.1% formic acid in water and acetonitrile as eluent (linear gradient 10% to 95% acetonitrile), read-out: LogP [a].
[3] abbreviates: neutral range, 0.001 molar ammonium acetate solution in water and acetonitrile as eluent (linear gradient 10% to 95% acetonitrile), read-out: LogP [b].

Read-outs that look alike come from different tables or passages of the source.

On to `CCN(C)C=Nc1cc(C)c(Cc2ccc(F)cc2F)cc1Cl` [Example 21, N′-[2-chloro-4-[(2,4-difluorophenyl)methyl]-5-methylphenyl]-N-ethyl-N-methylmethanimidamide], for which the values for the chromatographic logP in data set [1] (setting [2]) and in data set [1] (setting [3]) were 1.86 and 4.6, respectively. Further, the pest or weed control at 10 ppm in the data set with Phakopsora pachyrhizi is 90 to 100%.
Consider `CCN(C)C=Nc1cc(Cl)c(Cc2ccc(F)cc2F)cc1C` [Example 22, N′-[5-chloro-4-[(2,4-difluorophenyl)methyl]-2-methylphenyl]-N-ethyl-N-methylmethanimidamide], for which the chromatographic logP in data set [1] (setting [2]) came to 1.63. Further, the pest or weed control at 10 ppm in the data set with Phakopsora pachyrhizi was in the range of 90 to 100%.
In the case of `CCN(C)C=Nc1cc(Cl)c(Cc2ccccc2C)cc1C` [Example 23, N′-[5-chloro-2-methyl-4-[(2-methylphenyl)methyl]phenyl]-N-ethyl-N-methylmethanimidamide], the chromatographic logP in data set [1] (setting [2]) came out at 1.66; in data set [1] (setting [3]), 5.54. In addition, the pest or weed control at 10 ppm with Phakopsora pachyrhizi is 90 to 100%.
For `CCN(C)C=Nc1cc(Cl)c(Cc2cccc(F)c2F)cc1C` [Example 24, N′-[5-chloro-4-[(2,3-difluorophenyl)methyl]-2-methylphenyl]-N-ethyl-N-methylmethanimidamide], the results for the chromatographic logP in data set [1] (setting [2]) and in data set [1] (setting [3]) were 1.63 and 4.92, respectively. The pest or weed control at 10 ppm in the data set with Phakopsora pachyrhizi lay within 90 to 100%.
Turning to `CCN(C)C=Nc1cc(Cl)c(Cc2ccccc2Cl)cc1C` [Example 30, N′-[5-chloro-4-[(2-chlorophenyl)methyl]-2-methylphenyl]-N-ethyl-N-methylmethanimidamide], the values for the chromatographic logP in data set [1] (setting [2]) and in data set [1] (setting [3]) were 1.81 and 5.55, respectively. The pest or weed control at 10 ppm in the data set on Phakopsora pachyrhizi lay within 90 to 100%.

These data come from US20190308933A1, “PHENYLAMIDINES AND THE USE THEREOF AS FUNGICIDES” (priority 2016, published 2019).
